Measured values reported in patent US20020022722A1, “4'-C-ethynyl pyrimidine nucleoside compounds” (priority 1999, published 2002).
Values after ≈ are worked out from the molar mass of the structure shown. Read-outs that look alike come from different tables or passages of the source.

Tests used:
[1] = Cytotoxicity, MTT method using non-infected MT-4 cells; format: cell-based; details: human
Procedure: (§1) 1) MTT Method Using MT-4 Cells
(§2) 1. A test agent (100 μl) is diluted on a 96-well microplate. MT-4 cells infected with HIV-1 (IIIb strain; 100 TCID50) and non-infected MT-4 cells are added to the microplate such that the number of cells in each well becomes 10,000. The cells are cultured at 37° C. for five days.
(§3) 2. MTT (20 μl, 7.5 mg/ml) is added to each well, and the cells are further cultured for 2-3 hours.
(§4) 3. The cultured medium (120 μl) is sampled, and MTT terminating solution (isopropanol containing 4% Triton X-100 and 0.04N HCl) is added to the sample. The mixture is stirred to form formazane, which is dissolved. The absorbance at 540 nm of the solution is measured. Since the absorbance is proportional to the number of viable cells, the test agent concentration at which a half value of the absorbance is measured in a test using infected MT-4 cells represents EC50, whereas the test agent concentration at which a half value of the absorbance is measured in a test using non-infected MT-4 cells represents CC50.

HIV-1 (IIIb strain) = assay: Anti-HIV activity, MTT method using MT-4 cells; format: cell-based; details: Human immunodeficiency virus 1, IIIB
Procedure: (2) Anti-human Immunodeficiency Virus (HIV) Activity
as §1, §2, §3, §4

[2] = system: HIV drug-resistant strain: MDR; assay: MAGI assay using HeLa CD4/LTR-beta-Gal cells, MDR; format: cell-based; details: Human immunodeficiency virus 1, HeLa
Procedure: (§5) 2) MAGI Assay Using HeLa CD4/LTR-beta-Gal Cells
(§6) 1. HeLa CD4/LTR-beta-Gal cells are added to 96 wells such that the number of cells in each well is 10,000. After 12-24 hours, the culture medium is removed, and a diluted test agent (100 μl) is added.
(§7) 2. A variety of HIV strains (wild strain: WT, drug-resistant strain: MDR, M184V, NL4-3, 104pre, and C; each equivalent to 50 TCID50) are added, and the cells are further cultured for 48 hours.
(§8) 3. The cells are fixed for five minutes using PBS containing 1% formaldehyde and 0.2% glutaraldehyde.
(§9) 4. After the fixed cells are washed with PBS three times, the cells are stained with 0.4 mg/ml X-Gal for one hour, and the number of blue-stained cells of each well is counted under a transmission stereoscopic microscope. The test agent concentration at which blue-stained cells decrease to 50% and 90% in number represents EC50 and EC90, respectively.

HIV wild strain: WT = assay: MAGI assay using HeLa CD4/LTR-beta-Gal cells, WT; format: cell-based
Procedure: as §5, §6, §7, §8, §9

[3] = Cytotoxicity by use of HeLa CD4/LTR-beta-Gal cells; format: cell-based; details: human
Procedure: (§10) 5. In a manner similar to that employed in the MTT method, cytotoxicity is measured by use of HeLa CD4/LTR-beta-Gal cells.

[4] = system: HIV drug-resistant strain: M184V; assay: MAGI assay using HeLa CD4/LTR-beta-Gal cells, M184V; format: cell-based; details: Human immunodeficiency virus 1, HeLa
Procedure: as §5, §6, §7, §8, §9

HIV strain 104pre = assay: MAGI assay using HeLa CD4/LTR-beta-Gal cells, 104pre; format: cell-based
Procedure: as §5, §6, §7, §8, §9

HIV strain C = assay: MAGI assay using HeLa CD4/LTR-beta-Gal cells, C; format: cell-based; details: Human immunodeficiency virus 1, HeLa; for EC90: read-out: HIV C (EC90, μM); for EC50: read-out: HIV C EC50, μM
Procedure: as §5, §6, §7, §8, §9

HIV strain NL4-3 = assay: MAGI assay using HeLa CD4/LTR-beta-Gal cells, NL4-3; format: cell-based
Procedure: as §5, §6, §7, §8, §9

[5] = system: HeLa CD4/LTR-beta-Gal cells; assay: Cytotoxicity by use of HeLa CD4/LTR-beta-Gal cells; format: cell-based; details: Table 6
Procedure: as §10

[6] = result in words; cited from earlier work
multi-PI resistant HIV-1 = details: result in words; cited from earlier work
HIV-1 IIIb strain = details: MT-4 cells, result in words; cited from earlier work
[7] = non-infected MT-4 cells, Table 3, read-out: Cytotoxicity (CC50, μg/ml)
[8] = MT4, Table 3, read-out: HIV-1 (EC50, μg/ml)
[9] = read-out: HIV MDR (EC50, μg/ml), Table 6
[10] = Human immunodeficiency virus 1, HeLa, read-out: HIV WT (EC50, μg/ml), Table 6
[11] = Table 6, read-out: Cytotoxicity (CC50, μg/ml)
[12] = read-out: HIV M184V (EC50, μg/ml), Table 6
[13] = MT4, Table 2, read-out: HIV-1 (EC50, μg/ml)
[14] = read-out: HIV MDR (EC50, μg/ml), Table 5
[15] = read-out: HIV M184V (EC50, μg/ml), Table 5
[16] = MT4, Table 4, read-out: HIV-1 (EC50)
[17] = MT4, read-out: HIV-1 (EC50, μg/ml), Table 2
[18] = MT4, read-out: HIV-1 (EC50, μg/ml), Table 3
[19] = Human immunodeficiency virus 1, HeLa, read-out: HIV WT (EC50, μg/ml), Table 5
[20] = Table 5, read-out: Cytotoxicity (CC50, μg/ml)
[21] = non-infected MT-4 cells, Table 2, read-out: Cytotoxicity (CC50, μg/ml)

C#C[C@]1(CO)O[C@@H](n2cnc3c(=O)[nH]cnc32)CC1O (stereo partly drawn) [Compound 29, 9-(2-deoxy-4-C-ethynyl-β-D-ribo-pentofuranosyl)hypoxanthine]
CC50 at 5 days [1, 7]: 38 µg/mL | EC50 (HIV-1 (IIIb strain); [8]): 0.037 µg/mL | EC50 [2, 9]: 0.14 µg/mL (≈ 0.507 µM) | EC50 (HIV wild strain: WT; [10]): 0.22 µg/mL (≈ 0.796 µM) | CC50 [3, 11]: > 100 µg/mL | EC50 [4, 12]: 4.6 µg/mL (≈ 16.7 µM)

C#C[C@]1(CO)O[C@@H](n2ccc(N)nc2=O)C[C@@H]1O [Compound 13, 4′-C-ethynyl-2′-deoxycytidine]
EC50 (HIV-1 (IIIb strain); [13]): 0.0012 µg/mL | EC50 [2, 14]: 0.0003 µg/mL (≈ 0.00119 µM) | EC50 (HIV wild strain: WT; Human immunodeficiency virus 1, Table 5, read-out: HIV WT (EC50, μg/ml)): 0.00031 µg/mL (≈ 0.00123 µM) | EC50 [4, 15]: 0.00054 µg/mL (≈ 0.00215 µM)

Cc1cn([C@H]2C[C@H](N=[N+]=[N-])[C@@H](CO)O2)c(=O)[nH]c1=O [AZT, zidovudine, reference compound]
CC50 at 5 days ([1]; Table 2, read-out: Cytotoxicity (CC50, μg/ml)): > 0.27 µg/mL | CC50 at 5 days ([1]; Table 3, read-out: Cytotoxicity (CC50, μg/ml)): 9.08 µg/mL | EC50 (HIV-1 (IIIb strain); [16]): 55 nM | EC50 (HIV-1 (IIIb strain); [17]): 0.0016 µg/mL | EC50 (HIV-1 (IIIb strain); [18]): 0.0011 µg/mL | EC50 [2, 14]: 4.1 µg/mL (≈ 15.3 µM) | EC50 [2, 9]: 5.34 µg/mL (≈ 20 µM) | EC90 (HIV strain 104pre; Human immunodeficiency virus 1, Table 7, value in parentheses, HeLa CD4/LTR-beta-Gal cells, read-out: HIV 104 pre (EC90)): 9.66 µM | EC50 (HIV strain 104pre; Human immunodeficiency virus 1, Table 7, HeLa CD4/LTR-beta-Gal cells, read-out: HIV 104 pre EC50): 0.059 µM | EC50 (HIV wild strain: WT; [19]): 0.0059 µg/mL (≈ 0.0221 µM) | EC50 (HIV wild strain: WT; [10]): 0.0027 µg/mL (≈ 0.0101 µM) | EC90 (HIV strain C): > 10 µM | EC50 (HIV strain C): 3.27 µM | EC90 (HIV strain NL4-3; Human immunodeficiency virus 1, NL43, Table 7, value in parentheses, HeLa CD4/LTR-beta-Gal cells, read-out: HIV NL-43 (EC90)): 4.96 µM | EC50 (HIV strain NL4-3; Human immunodeficiency virus 1, NL43, Table 7, HeLa CD4/LTR-beta-Gal cells, read-out: HIV NL-43 EC50): 0.109 µM | Cytotoxicity (CC50, μg/ml) [5]: >26.7 µg/mL | CC50 [3, 20]: > 26.7 µg/mL | EC50 [4, 15]: 0.0083 µg/mL (≈ 0.0311 µM) | EC50 [4, 12]: 0.0013 µg/mL (≈ 0.00486 µM)

C#C[C@]1(CO)O[C@@H](n2cc(C)c(=O)[nH]c2=O)[C@H](O)[C@@H]1O [1-(4-C-ethynyl-β-D-ribo-pentofuranosyl)thymine]
biological activities such as antiviral and antitumor activities [6]: no such biological activities have been observed

C#C[C@]1(CO)O[C@@H](n2cnc3c(N)nc(N)nc32)CC1O (stereo partly drawn) [Compound 28, 9-(2-deoxy-4-C-ethynyl-β-D-ribo-pentofuranosyl)-2,6-diaminopurine]
CC50 at 5 days [1, 7]: 0.26 µg/mL | EC50 (HIV-1 (IIIb strain); [18]): 0.0001 µg/mL | EC50 [2, 9]: 0.00029 µg/mL (≈ 0.000999 µM) | EC50 (HIV wild strain: WT; [10]): 0.00028 µg/mL (≈ 0.000965 µM) | CC50 [3, 11]: 2.7 µg/mL (≈ 9.3 µM) | EC50 [4, 12]: 0.0017 µg/mL (≈ 0.00586 µM)

C#C[C@]1(CO)O[C@@H](n2ccc(=O)[nH]c2=O)[C@H](O)[C@@H]1O [4′-C-ethynyluridine]
biological activities such as antiviral and antitumor activities [6]: no such biological activities have been observed

C#C[C@]1(CO)O[C@@H](n2cc(F)c(N)nc2=O)C[C@@H]1O [Compound 37, 4′-C-ethynyl-2′-deoxy-5-fluorocytidine]
CC50 at 5 days ([1]; non-infected MT-4 cells, Table 4, read-out: Cytotoxicity (CC50)): > 500000 nM | EC50 (HIV-1 (IIIb strain); [16]): 33 nM | EC90 (HIV strain 104pre; Human immunodeficiency virus 1, HeLa, read-out: HIV 104 pre (EC90, μM)): 0.19 µM | EC50 (HIV strain 104pre; Human immunodeficiency virus 1, HeLa, read-out: HIV 104 pre EC50, μM): 0.022 µM | EC90 (HIV strain C): 3.44 µM | EC50 (HIV strain C): 0.122 µM | EC90 (HIV strain NL4-3; Human immunodeficiency virus 1, NL43, HeLa, read-out: HIV NL-43 (EC90, μM)): 0.25 µM | EC50 (HIV strain NL4-3; Human immunodeficiency virus 1, NL43, HeLa, read-out: HIV NL-43 EC50, μM): 0.021 µM

C#C[C@]1(CO)O[C@@H](n2ccc(N)nc2=O)[C@H](O)[C@@H]1O [4′-C-ethynylcytidine]
biological activities such as antiviral and antitumor activities [6]: no such biological activities have been observed

C#C[C@]1(CO)O[C@@H](n2ccc(N)nc2=O)[C@@H](O)[C@@H]1O [Compound 19, 1-(4-C-ethynyl-β-D-arabino-pentofuranosyl)cytosine]
CC50 at 5 days [1, 21]: 0.53 µg/mL | EC50 (HIV-1 (IIIb strain); [17]): 0.0115 µg/mL | EC50 [2, 14]: 0.021 µg/mL (≈ 0.0786 µM) | EC50 (HIV wild strain: WT; [19]): 0.0019 µg/mL (≈ 0.00711 µM) | CC50 [3, 20]: > 100 µg/mL | EC50 [4, 15]: 0.19 µg/mL (≈ 0.711 µM)

Cc1ccccc1CNC(=O)[C@H]1N(C(=O)[C@@H](O)[C@H](Cc2ccccc2)NC(=O)c2cccc(O)c2C)CSC1(C)C [JE-2147]
antiviral activity against a multi-PI resistant HIV-1 (multi-PI resistant HIV-1): potent antiviral activity

C#C[C@]1(CO)O[C@@H](n2cc(C)c(=O)[nH]c2=O)C[C@@H]1O [4′-C-ethynyl thymidine, 4′-C-ethynylthymidine, reference compound]
CC50 at 5 days [1, 21]: > 100 µg/mL | EC50 (HIV-1 (IIIb strain); [13]): 0.22 µg/mL | anti-HIV activity compared with AZT (HIV-1 IIIb strain): weaker than that of AZT | EC50 [2, 14]: 0.033 µg/mL (≈ 0.124 µM) | EC50 (HIV wild strain: WT; [19]): 0.097 µg/mL (≈ 0.364 µM) | CC50 [3, 20]: > 100 µg/mL | EC50 [4, 15]: 0.049 µg/mL (≈ 0.184 µM)

C#C[C@]1(CO)O[C@@H](n2cnc3c(N)ncnc32)CC1O (stereo partly drawn) [Compound 23, 9-(2-deoxy-4-C-ethynyl-β-D-ribo-pentofuranosyl)adenine]
CC50 at 5 days [1, 7]: 4.4 µg/mL | EC50 (HIV-1 (IIIb strain); [8]): 0.0027 µg/mL | EC50 [2, 9]: 0.0017 µg/mL (≈ 0.00618 µM) | EC50 (HIV wild strain: WT; [10]): 0.0012 µg/mL (≈ 0.00436 µM) | CC50 [3, 11]: > 100 µg/mL | EC50 [4, 12]: 0.013 µg/mL (≈ 0.0472 µM)

C#C[C@]1(CO)O[C@@H](n2cnc3c(=O)[nH]c(N)nc32)CC1O (stereo partly drawn) [Compound 30, 9-(2-deoxy4-C-ethynyl-β-D-ribo-pentofuranosyl)guanine]
CC50 at 5 days [1, 7]: 0.41 µg/mL | EC50 (HIV-1 (IIIb strain); [18]): 0.00044 µg/mL | EC50 [2, 9]: 0.0014 µg/mL (≈ 0.00481 µM) | EC50 (HIV wild strain: WT; [10]): 0.002 µg/mL (≈ 0.00687 µM) | CC50 [3, 11]: 15.2 µg/mL (≈ 52.2 µM) | EC50 [4, 12]: 0.0023 µg/mL (≈ 0.0079 µM)
